From patent publication US11312680B2, “Method for treating a patient having a colon cancer” (King Abdulaziz University, priority 2019, dated 2022)

What was measured:
MCF7 breast cancer cells = assay: MTT viability assay against MCF7 cells; assay type: cell-based, human
Description: (§1) The KAC compounds were evaluated for antiproliferative effect against HCT-116 and MCF7 cell lines using the MTT viability assay and to calculate the relative IC50 values for each compound. Cells were seeded in triplicate in 96-well plates at a density of 10×10^3 cells/mL in a total volume of 100 μL per well and allowed to adhere overnight. Cells were treated with various concentrations of tested KAC compounds or 0.1% of DMSO (vehicle) for 27 h. Then the medium was discarded and 100 μL per well of MTT (5 mg/mL in PBS) containing medium was added. After incubation at 37° C. for 3 h, the MTT-containing medium was replaced by DMSO (100 μL per well) to dissolve the formazon crystal and incubated for 10 min. Absorbance of the solution was measured by microplate reader at […]. The IC50 values were calculated according to the dose-dependent curves using GraphPad prism, version 5.0. All the experiments were repeated in at least three independent experiments.

N87 stomach cancer cells = assay: MTT cytotoxicity assay against N87 cells; assay type: cell-based, human
Description: Cytotoxicity of all the compounds against N87 cells was determined using MTT assay. Briefly, 25,000 cells suspended in 0.1 mL of cell culture media were added in each well of a 96-well plate. After allowing the cells to attach for 24 h, media was aspirated from all the wells, and different concentrations of anticancer compounds in cell culture media were added to the wells in triplicate. Six wells were incubated with drug free media, and used as control. 96 hours after the treatment, 25 μL of MTT solution (5 mg/mL in phosphate saline buffer, pH 7.4) was added to each well, and the plate was incubated for 4.5 hours at 37° C. in the incubator. After incubation, 100 μL of 10% SDS in 0.01 M hydrochloric acid was added to each well, and the plate was incubated overnight at 37° C. The next day absorbance was determined in each well at 590 nm using a plate reader. IC50 value of each compound was determined using GraphPad Prism.

[1] = system: HCT116 colon cancer cells; assay: MTT viability assay against HCT-116 cells; assay type: cell-based, human
Description: as §1

HCT-116 cells = assay: Cell cycle analysis of HCT-116 cells (propidium iodide flow cytometry); assay type: cell-based, human; conditions: for percentage of cells in G2/M phase: 24 h, control 9.0%; for cells in G2/M phase / apoptosis, population in the sub-G1 phase / apoptosis: 48 h; for apoptosis, population in the sub-G1 phase: control 0.9%; for cell cycle effect: HCT-116, 24 and 48 hours; for apoptosis: HCT-116, positive controls at 1 μM
Description: Flow cytometric analysis was used to determine DNA level in any given cell that has been stained with propidium iodide (PI). PI is a fluorescent DNA intercalating agent which binds stoichiometrically to nucleic acid. When bounded to DNA, its fluorescence intensity increases 20 fold (excitation 488 nm and emission 600 nm). As cells pass singly through a beam of light their cell cycle state is analyzed. The fluorescent intensity of DNA-bound PI correlates to the DNA content of the cell. This allows the cell population in G1 phase (diploid −2n), G2M phase (4n), or S phase (2n-4n) to be differentiated by plotting a histogram of the PI fluorescence versus cell counts (linear scale). G1 and G2M can be seen as distinct peaks, with the S phase shown as the population between these two peaks. Apoptotic cells are hypo-diploid (pre-G1) and have a low PI fluorescence due to DNA fragmentation [Riccardi, C.; Nicoletti, I., Analysis of apoptosis by propidium iodide staining and flow cytometry. Nature protocols 2006, 1 (3), 1458-1461].
To study cell cycle stage, adherent and detached cells were collected by trypsinization and centrifuged at 800×g for 15 min. Cells were washed twice with ice-cold PBS and fixed with slow addition of ice-cold 70% ethanol overnight at −20° C. Fixed cells were centrifuged at 800×g for 15 min and the pellet was re-suspended in 400 μL PBS and transferred to LP5 FACS tubes then stained with 50 μg/mL of PI, containing 50 μg/mL of DNase-free RNase A (to degraded any double strand RNA present), at 37° C. for 30 min. The DNA content of cells (10,000 cells/experimental group) was analyzed by flow cytometer at 488 nm using a FACSCalibur flow cytometer (BD Biosciences, San Jose, Calif.).
In general, G2/M cell cycle arrest is strongly associated with inhibition of tubulin polymerization. The effect of KX-01 analogue, KAC-3, was investigated with colon cancer HCT-116 cells by flow cytometry at two concentrations (5 μM and 10 μM) for 24 and 48 hours. […] The percentage of cells in G2/M phase after 24 h was 13.3% and 41.7% at concentrations of 5 μM and 10 μM, respectively compared to the control (9.0%) (see FIG. 9). […] The cell cycle analysis results for KAC-3 are typical for tubulin targeting agents, which characteristically cause G2/M blockade followed by apoptosis [Perez, E. A., Microtubule inhibitors: Differentiating tubulin-inhibiting agents based on mechanisms of action, clinical activity, and resistance. Molecular cancer therapeutics 2009, 8 (8), 2086-2095]. […] Cancer research and treatment: official journal of Korean Cancer Association 2017, 49 (3), 643-655; and Anbalagan, M.; Carrier, L.; Glodowski, S.; Hangauer, D.; Shan, B.; Rowan, B. G., KX-01, a novel Src kinase inhibitor directed toward the peptide substrate site, synergizes with tamoxifen in estrogen receptor a positive breast cancer. Breast cancer research and treatment 2012, 132 (2), 391-409]. […] Frontiers in pharmacology 2017, 8, 244].

HL-60 leukemia cells = assay: CellTiter-Blue cell viability assay against HL-60 cells; assay type: cell-based; conditions: Homo sapiens, HL-60, 48 h, leukemia cells HL60, CellTiter-Blue
Description: HL-60 cells were purchased from CLS Cell Line Service GmbH (Eppelheim, Germany) and cultured in Roswell Park Memorial Institute-1640 medium (RPMI-1640; Thermo Fisher Scientific, Inc; Waltham, Mass., USA) supplemented with 10% fetal bovine serum (FBS; Thermo Fisher Scientific) and ciprofloxacin (10 μg/ml; Cipla Limited; Mumbai, India), at 37° C. with 5% CO2 in a humidified incubator.
The CellTiter®-Blue Cell Viability assay was acquired from Promega Corporation (Madison, Wis., USA). Cell viability assay was performed as follows. The cells (10^4/well) were incubated with KAC-12 at a concentration gradient ranging from 0.01 to 100 μM, in 96-well plates for 48 h at 37° C. Subsequently, 20 μL of CellTiter®-Blue Cell Viability reagent was added to each well and incubated for an additional 2 h for the development of fluorescence. The fluorescence emission was measured at 590 nm using the SpectraMax® i3x Multi-Mode microplate reader (Molecular Devices, LLC; San Jose, Calif., USA.) and plotted against drug concentrations to determine the mean inhibitory concentration of KAC-12 producing 50% decrease in cell viability (IC50).

[2] = system: MDA-MB-231 and BT-549 and MDA-MB-468 cells; conditions: MDA-MB-231, BT-549, MDA-MB-468 cells; literature; cited from earlier work

SMILES | IC50 (MCF7 breast cancer cells; Homo sapiens, MCF7, 27 h) [µM] | IC50 (N87 stomach cancer cells; Homo sapiens, 96 h) [µM] | IC50 ([1]; Homo sapiens, HCT-116, 27 h) [µM] | other results
CC(=O)Nc1ccc(CC(=O)NCc2ccccc2)cc1 [KAC-01, 2-(4-acetamidophenyl)-N-benzylacetamide] | 29.3 | > 50 | 18.8 | IC50 ([1]; 27 h): 18.8 µM
O=C(Cc1ccc(NC(=O)c2ccccc2C(=O)N2CCCCC2)cc1)NCc1ccccc1 [KAC-02, N-(4-(2-(benzylamino)-2-oxoethyl)phenyl)-2-(piperidine-1-carbonyl)benzamide] | 9.48 |  |  | 
O=C(Cc1ccc(NC(=O)c2ccccc2C(=O)N2CCOCC2)cc1)NCc1ccccc1 [KAC-03, N-(4-(2-(benzylamino)-2-oxoethyl)phenyl)-2-(morpholine-4-carbonyl)benzamide] | 3.5 | 18.2 | 4.8 | percentage of cells in G2/M phase (HCT-116 cells; HCT-116, 5 μM): 13.3%; cells in G2/M phase (HCT-116 cells; HCT-116, 5 μM): 30.7%; apoptosis, population in the sub-G1 phase (HCT-116 cells; HCT-116, 5 μM): 8.7%; percentage of cells in G2/M phase (HCT-116 cells; HCT-116, 10 μM): 41.7%; cells in G2/M phase (HCT-116 cells; HCT-116, 10 μM): 32.8%; apoptosis, population in the sub-G1 phase (HCT-116 cells; HCT-116, 10 μM): 11.6%; cell cycle effect (HCT-116 cells): significant G2/M arrest in a time- and concentration-dependent manner; IC50 ([1]; 27 h): 4.76 µM
CCN(CC)C(=O)c1ccccc1C(=O)Nc1ccc(CC(=O)NCc2ccccc2)cc1 [KAC-04, N^1-(4-(2-(benzylamino)-2-oxoethyl)phenyl)-N^2,N^2-diethylphthalamide] | > 50 | > 50 |  | 
O=C(Cc1ccc(NC(=O)c2ccccc2-c2ccccc2C(=O)N2CCCCC2)cc1)NCc1ccccc1 [KAC-05, N-(4-(2-(benzylamino)-2-oxoethyl)phenyl)-2′-(piperidine-1-carbonyl)-[1,1′-biphenyl]-2-carboxamide] | 44.2 |  | > 50 | 
O=C(Cc1ccc(NC(=O)c2ccccc2-c2ccccc2C(=O)N2CCOCC2)cc1)NCc1ccccc1 [KAC-06, N-(4-(2-(benzylamino)-2-oxoethyl)phenyl)-2′-(morpholine-4-carbonyl)-[1,1′-biphenyl]-2-carboxamide] | 34.9 | > 50 | 30.6 | 
CCN(CC)C(=O)c1ccccc1-c1ccccc1C(=O)Nc1ccc(CC(=O)NCc2ccccc2)cc1 [KAC-07, N^2-(4-(2-(benzylamino)-2-oxoethyl)phenyl)-N^2′,N^2′-diethyl-[1,1′-biphenyl]-2,2′-dicarboxamide] | > 50 | > 50 |  | 
O=C(Cc1ccc(NC(=O)c2ccccc2)cc1)NCc1ccccc1 [KAC-08, N-(4-(2-(benzylamino)-2-oxoethyl)phenyl)benzamide] | 2.6 | > 50 | 19.7 | IC50 (MCF7 breast cancer cells; 27 h): 2.63 µM; IC50 N87 (N87 stomach cancer cells; 96 hours): much weaker; IC50 ([1]; 27 h): 19.7 µM
CCC(=O)Nc1ccc(CC(=O)NCc2ccccc2)cc1 [KAC-09, N-(4-(2-(benzylamino)-2-oxoethyl)phenyl)propionamide] | 37 | 7.2 | > 50 | IC50 (MCF7 breast cancer cells; 27 h): 37 µM; IC50 (N87 stomach cancer cells; 96 hours): 7.24 µM
Cc1ccc(S(=O)(=O)Nc2ccc(CC(=O)NCc3ccccc3)cc2)cc1 [KAC-10, N-benzyl-2-(4-((4-methylphenyl)sulfonamido)phenyl)acetamide] |  |  | 22.7 | 
Nc1ccc(CC(=O)NCc2ccccc2)cc1 [KAC-14, 2-(4-aminophenyl)-N-benzylacetamide] |  | > 50 | > 50 | IC50 (HL-60 leukemia cells): > 50 µM; IC50 HCT116 ([1]; 27 h): did not affect any of the tested cell lines
COc1ccc(CNC(=O)Cc2ccc(NC(=O)c3cccc(Cl)c3)cc2)cc1 [KAC-15, 3-Chloro-N-(4-(2-((4-methoxybenzyl)amino)-2-oxoethyl)phenyl)benzamide] |  |  | > 50 | 
O=C(Cc1ccc(NC(=O)c2cccc(Cl)c2)cc1)NCc1ccc(F)cc1 [KAC-16, 3-Chloro-N-(4-(2-((4-fluorobenzyl)amino)-2-oxoethyl)phenyl)benzamide] |  |  | > 50 | 
O=C(Cc1ccc(NC(=O)c2cccc(Cl)c2)cc1)NCCc1ccccc1 [KAC-17, 3-Chloro-N-(4-(2-oxo-2-(phenethylamino)ethyl)phenyl)benzamide] |  |  | 25.9 | 
O=C(Cc1ccc(NC(=O)c2cccc(Cl)c2)cc1)NCc1ccco1 [KAC-18, 3-Chloro-N-(4-(2-((furan-2-ylmethyl)amino)-2-oxoethyl)phenyl)benzamide] |  |  | 23.9 | 
O=C(Cc1ccc(-c2ccc(OCCN3CCOCC3)cc2)cn1)NCc1ccccc1 [KX-01] |  |  |  | cell cycle effect [2]: induced significant G2M phase arrest
CC(=O)O[C@H]1C(=O)[C@@]2(C)[C@H]([C@H](OC(=O)c3ccccc3)[C@]3(O)C[C@H](OC(=O)[C@H](O)[C@@H](NC(=O)c4ccccc4)c4ccccc4)C(C)=C1C3(C)C)[C@]1(OC(C)=O)CO[C@@H]1C[C@@H]2O [Paclitaxel, reference compound] |  |  |  | cell cycle effect (HCT-116 cells): no significant difference in the other cell cycle phases; apoptosis (HCT-116 cells): 7.7%
Cc1ccc(NC(=O)c2ccc(CN3CCN(C)CC3)cc2)cc1Nc1nccc(-c2cccnc2)n1 [imatinib, reference compound] |  |  |  | cell cycle effect (HCT-116 cells): no significant difference in the other cell cycle phases; apoptosis (HCT-116 cells): 6.4%
